For test [1], the target named is Cav2.2 in human SH-SY5Y cell membranes (Homo sapiens, UniProt Q00975). In words: biochemical. The test is classed as binding. The note with it: SEM.
A further test addresses hCav2.2 (Homo sapiens, UniProt Q00975). In words: cell-based. The following applies: SEM.

The structures appear in SMILES notation. Positions of bridges follow the written chain, without caps; N, C: chain ends. Non-standard residues stand in square brackets, D forms with d. Residues, ends and D or L forms follow the SMILES beside them. Hyp = O=C(O)[C@@H]1C[C@@H](O)CN1

Results on three compounds are retold here after article PMC6128854 (Scientific Reports, 2018).

Cav2.2 in human SH-SY5Y cell membranes, sequence (Q00975 whole entry, looked up): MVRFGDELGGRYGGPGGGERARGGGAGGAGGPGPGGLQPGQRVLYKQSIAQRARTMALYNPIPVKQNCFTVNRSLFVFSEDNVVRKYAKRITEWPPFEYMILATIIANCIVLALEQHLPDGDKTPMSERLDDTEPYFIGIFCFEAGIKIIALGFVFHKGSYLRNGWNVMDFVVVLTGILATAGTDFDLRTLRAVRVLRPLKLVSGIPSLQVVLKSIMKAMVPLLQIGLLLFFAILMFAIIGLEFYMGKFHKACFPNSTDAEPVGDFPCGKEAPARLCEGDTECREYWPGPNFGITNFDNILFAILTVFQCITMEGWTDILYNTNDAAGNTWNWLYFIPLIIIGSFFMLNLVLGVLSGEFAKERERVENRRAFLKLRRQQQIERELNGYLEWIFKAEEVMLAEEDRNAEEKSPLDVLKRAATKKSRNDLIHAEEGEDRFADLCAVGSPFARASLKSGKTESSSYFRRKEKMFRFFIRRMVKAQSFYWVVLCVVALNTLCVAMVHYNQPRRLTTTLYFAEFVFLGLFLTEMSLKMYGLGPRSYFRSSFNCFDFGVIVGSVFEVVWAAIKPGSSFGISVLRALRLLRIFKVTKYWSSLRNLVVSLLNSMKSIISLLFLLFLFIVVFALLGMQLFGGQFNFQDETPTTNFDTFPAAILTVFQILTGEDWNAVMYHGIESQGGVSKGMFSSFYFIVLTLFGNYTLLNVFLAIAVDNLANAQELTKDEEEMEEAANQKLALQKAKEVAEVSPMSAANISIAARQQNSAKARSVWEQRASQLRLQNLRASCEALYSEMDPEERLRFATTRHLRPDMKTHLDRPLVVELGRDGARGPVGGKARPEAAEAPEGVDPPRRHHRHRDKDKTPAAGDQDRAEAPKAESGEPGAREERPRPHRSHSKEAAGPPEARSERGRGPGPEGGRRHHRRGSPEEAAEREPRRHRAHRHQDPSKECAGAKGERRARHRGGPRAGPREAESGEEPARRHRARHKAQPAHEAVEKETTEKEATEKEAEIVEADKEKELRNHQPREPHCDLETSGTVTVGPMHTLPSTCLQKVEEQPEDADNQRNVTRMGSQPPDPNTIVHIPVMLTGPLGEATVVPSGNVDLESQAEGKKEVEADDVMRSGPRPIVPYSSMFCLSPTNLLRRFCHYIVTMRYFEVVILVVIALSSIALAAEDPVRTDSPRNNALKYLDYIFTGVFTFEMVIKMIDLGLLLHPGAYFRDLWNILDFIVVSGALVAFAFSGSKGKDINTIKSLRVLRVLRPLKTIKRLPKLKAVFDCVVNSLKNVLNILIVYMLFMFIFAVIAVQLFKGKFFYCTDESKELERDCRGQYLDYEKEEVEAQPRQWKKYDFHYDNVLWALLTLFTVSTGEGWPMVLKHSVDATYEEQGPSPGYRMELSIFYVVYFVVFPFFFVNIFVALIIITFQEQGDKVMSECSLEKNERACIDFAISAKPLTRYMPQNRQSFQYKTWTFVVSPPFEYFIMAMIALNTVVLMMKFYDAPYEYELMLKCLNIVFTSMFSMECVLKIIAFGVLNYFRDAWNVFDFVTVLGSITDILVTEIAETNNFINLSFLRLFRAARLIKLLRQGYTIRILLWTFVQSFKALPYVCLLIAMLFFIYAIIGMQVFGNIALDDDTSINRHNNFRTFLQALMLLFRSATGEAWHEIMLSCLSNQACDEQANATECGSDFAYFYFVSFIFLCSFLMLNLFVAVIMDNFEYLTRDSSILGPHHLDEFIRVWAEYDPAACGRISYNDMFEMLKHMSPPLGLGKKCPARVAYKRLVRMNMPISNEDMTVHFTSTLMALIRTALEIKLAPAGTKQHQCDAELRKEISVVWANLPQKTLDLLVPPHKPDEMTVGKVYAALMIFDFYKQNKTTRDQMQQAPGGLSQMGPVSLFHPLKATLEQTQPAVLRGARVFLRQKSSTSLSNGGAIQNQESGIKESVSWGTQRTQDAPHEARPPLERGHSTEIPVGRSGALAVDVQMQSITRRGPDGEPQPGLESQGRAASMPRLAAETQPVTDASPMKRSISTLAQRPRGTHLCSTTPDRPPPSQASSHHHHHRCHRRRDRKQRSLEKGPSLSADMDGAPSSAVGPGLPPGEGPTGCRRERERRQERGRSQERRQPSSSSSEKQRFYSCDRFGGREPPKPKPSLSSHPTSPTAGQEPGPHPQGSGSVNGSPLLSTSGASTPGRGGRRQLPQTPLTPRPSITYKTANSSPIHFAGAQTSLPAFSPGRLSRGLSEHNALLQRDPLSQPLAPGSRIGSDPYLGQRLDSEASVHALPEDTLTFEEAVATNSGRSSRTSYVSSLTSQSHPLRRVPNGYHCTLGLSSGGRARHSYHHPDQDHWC
hCav2.2, sequence (Q00975 whole entry, looked up): as above

With `C[C@@H](O)[C@@H]1NC(=O)[C@H](Cc2ccc(O)cc2)NC(=O)[C@@H]2C[C@@H](O)CN2C(=O)[C@H](CC(N)=O)NC(=O)[C@@H]2CSSC[C@@H]3NC(=O)[C@H](CO)NC(=O)[C@H](CO)NC(=O)CNC(=O)[C@@H]4C[C@@H](O)CN4C(=O)[C@H](CO)NC(=O)[C@H](CCCCN)NC(=O)[C@@H](N)CSSC[C@H](NC(=O)[C@H](CSSC[C@@H](C(=O)N[C@@H](Cc4ccc(O)cc4)C(N)=O)NC(=O)[C@H](CCCN=C(N)N)NC(=O)[C@H](CCCCN)NC1=O)NC(=O)[C@H](CC(N)=O)NC(=O)[C@H](Cc1ccc(O)cc1)NC(=O)[C@H](CO)NC(=O)[C@H]([C@@H](C)O)NC(=O)[C@@H]1C[C@@H](O)CN1C(=O)[C@H](CO)NC3=O)C(=O)N[C@@H](CCCN=C(N)N)C(=O)N[C@@H](CO)C(=O)N2` [GVIA, reference compound], the figures for the IC50 (in test [1]; at hCav2.2) were 0.078 ± 0.012 nM and 170 ± 25 nM, respectively.
For the compound `CC[C@H](C)[C@@H]1NC(=O)[C@@H]2CSSC[C@@H]3NC(=O)[C@H](CCCCN)NC(=O)[C@H](CO)NC(=O)CNC(=O)[C@@H]4C[C@@H](O)CN4C(=O)[C@@H]4CCCN4C(=O)[C@H](CCCCN)NC(=O)[C@@H](N)CSSC[C@H](NC(=O)[C@H](CSSC[C@@H](C(=O)N[C@@H](CCCNC(=N)N)C(=O)N[C@@H](CCCCN)C(=O)N[C@@H](Cc4ccc(O)cc4)C(=O)N[C@@H](Cc4ccc(O)cc4)C(=O)N[C@@H](CC(N)=O)C(=O)O)NC(=O)[C@H](CCCNC(=N)N)NC(=O)[C@H](CCCCN)NC(=O)[C@H]([C@@H](C)O)NC(=O)[C@H](Cc4ccc(O)cc4)NC(=O)[C@H](CO)NC1=O)NC(=O)[C@H](CC(=O)O)NC(=O)[C@H](CCCNC(=N)N)NC(=O)[C@H](CCSC)NC(=O)[C@H](CO)NC(=O)[C@@H]1C[C@@H](O)CN1C(=O)[C@H](CO)NC3=O)C(=O)N[C@@H]([C@@H](C)O)C(=O)N[C@@H]([C@@H](C)O)C(=O)N2` [MoVIA] (H-CKP[Hyp]GSKCS[Hyp]SMRDCCTTCISYTKRCRKYYN-OH; disulfide 1-16, 8-19, 15-26), the IC50 in test [1] was determined as 0.035 ± 0.017 nM; on hCav2.2, 330 ± 18 nM.
Regarding `CC[C@H](C)[C@@H]1NC(=O)[C@@H]2CSSC[C@@H]3NC(=O)[C@H](CCCCN)NC(=O)[C@H](CO)NC(=O)CNC(=O)[C@@H]4C[C@@H](O)CN4C(=O)[C@@H]4CCCN4C(=O)[C@H](CCCCN)NC(=O)[C@@H](N)CSSC[C@H](NC(=O)[C@H](CSSC[C@@H](C(=O)N[C@@H](CCCNC(=N)N)C(=O)N[C@@H](CCCCN)C(=O)N[C@@H](Cc4ccc(O)cc4)C(=O)N[C@@H](Cc4ccc(O)cc4)C(=O)O)NC(=O)[C@H](CCCNC(=N)N)NC(=O)[C@H](CCCCN)NC(=O)[C@H]([C@@H](C)O)NC(=O)[C@H](Cc4ccc(O)cc4)NC(=O)[C@H](CO)NC1=O)NC(=O)[C@H](CC(=O)O)NC(=O)[C@H](CCCNC(=N)N)NC(=O)[C@H](CCSC)NC(=O)[C@H](CO)NC(=O)[C@@H]1C[C@@H](O)CN1C(=O)[C@H](CO)NC3=O)C(=O)N[C@@H]([C@@H](C)O)C(=O)N[C@@H]([C@@H](C)O)C(=O)N2` [MoVIB] (H-CKP[Hyp]GSKCS[Hyp]SMRDCCTTCISYTKRCRKYY-OH; disulfide 1-16, 8-19, 15-26), the results for the IC50 (in test [1]; against hCav2.2) were 0.365 ± 0.204 nM and 600 ± 120 nM, respectively.

The IC50 is the concentration at which inhibition is half-maximal.
